# Measured values as given in patent US12365684B2, “Short-acting benzodiazepine salts and their polymorphic forms” (priority 2006, dated 2025).
# Several values for one entry are separate records, joined by “and”; a condition that tells them apart may be missing. Identical values can stand only once. Like-named read-outs stand apart in the source and are kept apart here.
# How the values were obtained:
# [1] = Gravimetric Vapour Sorption (GVS); type: physicochemical; details: 25° C., 0-90% RH range
# Experimental: All samples were run on a Hiden IGASorp moisture sorption analyser running CFRSorp software. Sample sizes were typically 10 mg. A moisture adsorption desorption isotherm was performed as outlined below (2 scans giving 1 complete cycle). All samples were loaded/unloaded at typical room humidity and temperature (40% RH, 25° C.). All samples were analysed by XRPD post GVS analysis. The standard isotherm was performed at 25° C. at 10% RH intervals over a 0-90% RH range unless otherwise stated.
# [2] = Thermodynamic aqueous solubility; type: physicochemical; details: water, 25° C., 24 hrs
# Experimental: This was measured by suspending sufficient compound in 0.25 ml of solvent (water) to give a maximum final concentration of 10 mg/ml of the parent free form of the compound. The suspension was equilibrated at 25° C. for 24 hrs followed by a pH check and filtration through a glass fibre C 96 well plate. The filtrate is then diluted down 101x. Quantitation was by HPLC with reference to a standard dissolved in DMSO at approx 0.1 mg/ml. Different volumes of the standard, diluted and undiluted tests were injected. The solubility was calculated by integration of the peak area found at the same retention time as the peak maximum in the standard injection. If there is sufficient solid in the filter plate the XRPD is normally checked for phase changes, hydrate formation, amorphization, crystallization etc.
# [3] = Polymorphism maturation experiment (solvent slurries), HPLC purity post 1 week; type: physicochemical; details: heat/cool cycle ambient to 60° C., starting hplc purity 97.7%
# Experimental: The solid was slurried in various solvents (see Table 11) for one week on a heat/cool cycle from ambient to 60° C. After one week the slurries were evaporated and the solids analysed by XRPD and HPLC.
# • Method: Gradient, Reverse Phase • Method Duration/min: 34 • Column: Phenomenex Gemini C18 5 μm (2.0×50 mm) (Guard cartridge Phenomenex Gemini C18 guard cartridge 2×4 mm) • Column Temperature/° C.: 40 • Injection/μl: 5 • Flow Rate ml/min: 0.8 • Detection: UV • Wavelength/nm: 255 (bandwidth of 90 nm), 240 (bandwidth of 80 nm), 254 (bandwidth of 8 nm) • Phase A: 2 mmol NH4HCO3 (adjusted to pH10 with NH3 solution) Phase B: acetonitrile Timetable: […]
# [4] = tested on: mice; assay: Anaesthetic and sedative effects: loss of the righting reflex (LRR) after i.v. administration; type: in vivo; details: for NUMBER OF MICE WITH LRR: eight mice per group; for LRR DURATION, mean: maximum = 90 minutes after injection
# Experimental: The anaesthetic and sedative effects of the besylate salt Form 1 of the present invention was evaluated. The besylate (benzenesulfonic acid) salt was dissolved in physiological saline for administration of the test composition to the animal. The test composition was administered to mice, placed in individual Plexiglas cages (20×10×10 cm). Mice were injected with either vehicle or test substance by the intravenous route. The latency to sleep and the duration of anaesthesia (maximum: 90 minutes after test-substance administration) were recorded. Anaesthesia is indicated by loss of the righting reflex (LRR). The righting reflex test was performed as soon as the animals appear sedated, approximately every 20-30 seconds. Once the righting reflex is absent, duration of loss of righting reflex was measured by testing for the return of the righting reflex approximately every 20-30 seconds thereafter. Eight mice were studied per group and the test was performed blind.
# [5] = Observed solubility of compound of formula (I) besylate in solvents; type: physicochemical; details: approximate
# Text: The compound also has an excess of Hydrogen bond acceptors and therefore will be suitably partnered by Hydrogen bond donating solvents. It is thus expected that the compound will prefer solubilisation in a range of polar organic solvents such as the alcohols, particularly those which provide a partially lipophillic, Hydrogen bond donating environment. This has been borne out by experimental evidence (details of solvents used are given in Example 8):
# Values quoted are approximate, but experimentally confirmed.
# [6] = Solid-state stability study of compound of formula (I) (appearance, HPLC content); type: physicochemical
# Experimental: Method/Technique. 2 mg samples of compound of formula (I), accurately weighed, were placed in 4-mL clear glass screw-cap vials. Samples were tested at initial and after 34 days stored at 5° C./Ambient Relative Humidity (AMRH) Closed, 30° C./60% RH Closed, 40° C./75% RH Open and 60° C./AMRH Closed.
# [7] = pKa determination (potentiometric titration, Sirius GlpKa); type: physicochemical; details: MeOH:H2O mixtures, MeOH:H2O mixtures at 25° C., extrapolated to 0% co-solvent
# Experimental: pka determination was performed on a Sirius GlpKa instrument with D-PAS attachment. Measurements were made by potentiometric titration in MeOH:H2O mixtures at 25° C. The titration media was ionic strength adjusted with 0.15M KCl. The values found in the MeOH:H2O mixtures were extrapolated to 0% co-solvent via a Yasuda-Shedlovsky extrapolation.
smiles,measurement,setting,value
COC(=O)CC[C@@H]1N=C(c2ccccn2)c2cc(Br)ccc2-n2c(C)cnc21.O=S(=O)(O)c1ccccc1 [besylate Form 1],GVS uptake,[1],2.0%
same,solubility,[2],8.3 mg/mL
same,HPLC purity post 1 week,"[3]; slurried in 1,4-Dioxane",97.2 % area
same,HPLC purity post 1 week,"[3]; slurried in 2.5% aq 1,4-Dioxane",86 % area
same,HPLC purity post 1 week,[3]; slurried in 2.5% aq DCM,97.4 % area
same,HPLC purity post 1 week,[3]; slurried in 2.5% aq IPA,76.1 % area
same,HPLC purity post 1 week,[3]; slurried in 2.5% aq MEK,93.9 % area
same,HPLC purity post 1 week,[3]; slurried in 2.5% aq MIBK,97.3 % area
same,HPLC purity post 1 week,[3]; slurried in 2.5% aq MeCN,93.3 % area
same,HPLC purity post 1 week,[3]; slurried in 2.5% aq THF,93.3 % area
same,HPLC purity post 1 week,[3]; slurried in 2.5% aq acetone,96.8 % area
same,HPLC purity post 1 week,[3]; slurried in DCM,97.4 % area
same,HPLC purity post 1 week,[3]; slurried in IPA,97.1 % area
same,HPLC purity post 1 week,[3]; slurried in MEK,97.2 % area
same,HPLC purity post 1 week,[3]; slurried in MIBK,97.7 % area
same,HPLC purity post 1 week,[3]; slurried in MeCN,94.3 % area
same,HPLC purity post 1 week,[3]; slurried in MtBE,97.7 % area
same,HPLC purity post 1 week,[3]; slurried in THF,97.6 % area
same,HPLC purity post 1 week,[3]; slurried in acetone,97.5 % area
same,HPLC purity post 1 week,[3]; slurried in iPrOAc,97.5 % area
same,NUMBER OF MICE WITH LRR,[4]; 20.4 mg/kg i.v.,2
same,"LRR DURATION, mean",[4]; 20.4 mg/kg i.v.,1.7 min
same,"LATENCY TO LRR, mean ± s.e.m.",[4]; 27.2 mg/kg i.v.,3.0 ± 0.2 min
same,NUMBER OF MICE WITH LRR,[4]; 27.2 mg/kg i.v.,5+
same,"LRR DURATION, mean",[4]; 27.2 mg/kg i.v.,4.9 min
same,"LATENCY TO LRR, mean ± s.e.m.",[4]; 34 mg/kg i.v.,1.8 ± 0.2 min
same,NUMBER OF MICE WITH LRR,[4]; 34 mg/kg i.v.,6++
same,"LRR DURATION, mean",[4]; 34 mg/kg i.v.,6.0 min
same,"LATENCY TO LRR, mean ± s.e.m.",[4]; 40.8 mg/kg i.v.,1.6 ± 0.5 min
same,NUMBER OF MICE WITH LRR,[4]; 40.8 mg/kg i.v.,6++
same,"LRR DURATION, mean",[4]; 40.8 mg/kg i.v.,7.3 min
COC(=O)CC[C@@H]1N=C(c2ccccn2)c2cc(Br)ccc2-n2c(C)cnc21.O=S(=O)(O)c1ccccc1 [compound of formula (I) besylate],solubility,[5]; Water,2 mg/mL
same,solubility,"[5]; organic solvent or mixture, 1,2-ethanediol",60 mg/mL
same,solubility,"[5]; organic solvent or mixture, 1,4-dioxan",1 mg/mL
same,solubility,"[5]; organic solvent or mixture, 2,2,2-trifluoroethanol",1000 mg/mL
same,solubility,"[5]; organic solvent or mixture, 2-ethoxyethanol",20 mg/mL
same,solubility,"[5]; organic solvent or mixture, 2-methoxyethanol",167 mg/mL
same,solubility,"[5]; organic solvent or mixture, Acetone",2 mg/mL
same,solubility,"[5]; organic solvent or mixture, Acetonitrile",> 20 mg/mL
same,solubility,"[5]; organic solvent or mixture, Chloroform",< 0.4 mg/mL
same,solubility,"[5]; organic solvent or mixture, Dichloromethane",< 0.3 mg/mL
same,solubility,"[5]; organic solvent or mixture, Dimethyl sulfoxide",500 mg/mL
same,solubility,"[5]; organic solvent or mixture, Dimethylacetamide",200 mg/mL
same,solubility,"[5]; organic solvent or mixture, Dimethylformamide",300 mg/mL
same,solubility,"[5]; organic solvent or mixture, Ethanol",100 mg/mL
same,solubility,"[5]; organic solvent or mixture, Ethyl acetate",0.2 mg/mL
same,solubility,"[5]; organic solvent or mixture, Formamide",350 mg/mL
same,solubility,"[5]; organic solvent or mixture, Hexafluoropropan-2-ol",> 700 mg/mL
same,solubility,"[5]; organic solvent or mixture, Methanol",400 mg/mL
same,solubility,"[5]; organic solvent or mixture, Methylbenzoate",2 mg/mL
same,solubility,"[5]; organic solvent or mixture, Propan-1-ol",15 mg/mL
same,solubility,"[5]; organic solvent or mixture, Propan-2-ol",4.8 mg/mL
same,solubility,"[5]; organic solvent or mixture, Tetrahydrofuran",2.5 mg/mL
"COC(=O)CC[C@@H]1N=C(c2ccccn2)c2cc(Br)ccc2-n2c(C)cnc21 [compound of formula (I), Methyl 3-[(4S)-8-bromo-1-methyl-6-(2-pyridinyl)-4H-imidazol [1,2-a][1,4]benzodiazepin-4-yl]propanoate]",% Relative to Avg. Initial % area,"[6]; 5 C./AMRH Closed, 34 days",100.52%
same,Appearance,"[6]; 5 C./AMRH Closed, 34 days",Cream to light yellow powder
same,Compound of Formula (I) Content % area,"[6]; 5 C./AMRH Closed, 34 days",95.30 % area
same,Compound of Formula (I) Content % w/w,"[6]; 5 C./AMRH Closed, 34 days",102.6 % w/w
same,% Relative to Avg. Initial % area,"[6]; 30 C./60% RH Closed, 34 days",99.36%
same,Appearance,"[6]; 30 C./60% RH Closed, 34 days",Cream to light yellow powder
same,Compound of Formula (I) Content % area,"[6]; 30 C./60% RH Closed, 34 days",94.20 % area
same,Compound of Formula (I) Content % w/w,"[6]; 30 C./60% RH Closed, 34 days",94.7 % w/w
same,drop in content relative to the initial % area,"[6]; 30° C./60% RH Closed, 34 days",approximately 0.6%
same,% Relative to Avg. Initial % area,"[6]; 40 C./75% RH Open, 34 days",98.57% and 98.50%
same,Compound of Formula (I) Content % area,"[6]; 40 C./75% RH Open, 34 days",93.45 % area and 93.39 % area
same,Compound of Formula (I) Content % w/w,"[6]; 40 C./75% RH Open, 34 days",105.4 % w/w and 100.3 % w/w
same,% Relative to Avg. Initial % area,"[6]; 60 C./AMRH Closed, 34 days",92.57%
same,Compound of Formula (I) Content % area,"[6]; 60 C./AMRH Closed, 34 days",87.77 % area
same,Compound of Formula (I) Content % w/w,"[6]; 60 C./AMRH Closed, 34 days",93.4 % w/w and 91.1 % w/w
same,decrease of average % w/w content from the initial value,[6]; 34 days at 60° C./AMRH Closed,10 % w/w
same,Appearance,"[6]; RT, initial",Cream to light yellow powder
same,Compound of Formula (I) Content % area,"[6]; RT, initial",95.14 % area and 94.47 % area
same,Compound of Formula (I) Content % w/w,"[6]; RT, initial",100.5 % w/w and 104.1 % w/w
same,Avg. Initial % area,"[6]; RT, initial, average of two samples",Avg = 94.81 % area
same,time stable with respect to appearance and content,[6]; stored at 5° C./AMRH Closed,at least 34 days
same,pKa,[7]; read-out: pKa of the basic centre of the imidazole ring,~5
same,pKa,[7]; read-out: pKa of the basic centre of the pyridine ring,~2
